Tests used:
[1] = sand, Foc 0.0003 mg/mg; Kd=Foc×Koc
Protocol: To obtain a value to represent the mobility of each compound, two variables are used: Henry's Law constant (H), which focuses on the physical chemistry of the chemical and the retardation factor (R), which focuses on the physical and chemical characteristics of the geological environment. The retardation factor was calculated by first calculating the distribution coefficient using Equation 1.
Values for the organic carbon partition coefficient can be obtained from location-specific testing of soil or from various published sources. And the fraction of organic carbon in soil can be obtained from location-specific testing of soil or from various published sources.

[2] = sand, bulk density 1.8 g/cm^3, effective porosity 0.25
Protocol: Once the distribution coefficient is calculated, the Retardation Factor can be calculated using Equation 2.
where: R is the retardation factor; ρb=bulk density of aquifer matrix (g/cm^3); Kd=distribution coefficient (mL·g^−1); η=effective porosity

[3] = M=(H)(R), sand
Text: With Henry's Law constant and the retardation factor in place, the mobility of a specific compound is expressed as Equation (4):
where: M=mobility; H=Henry's Law constant; R=retardation factor

[4] = more conservative of carcinogenic or chronic, oral or dermal pathway; published sources; cited from earlier work
[5] = published sources; cited from earlier work

For c1ccccc1 [benzene], the “Kd, distribution coefficient” value [1] was 0.0177 mL/g, the “retardation factor (R)” value [2] was 1.13 and the “mobility factor (M)” value [3] was 0.2576. The “toxicity value (T)” value [4] was 0.04 mg/kg-day^−1 and the “Henry's Law constant (H)” value [5] was 0.228 atm.·mol^−1·m^−3.

Source: patent US20090222217A1, “Method of calculating environment risk of a chemical in soil” (AMSTED Industries Inc., priority 2008, published 2009)
